Measured values as given in US6255323A, “Cyanoguanidine compounds” (Shionogi Bioresearch Corp., priority 2000, dated 2001).

How the values were obtained:
[1] = tested on: tumor cell line (PC-3) versus normal cell line (CV-1); assay: Tumor cell selectivity: IC50 normal cell line (CV-1) versus tumor cell line (PC-3); format: cell-based, human (PC-3); monkey (CV-1, transformed monkey kidney cells); conditions: CV-1 normal cell line vs PC-3 tumor cell line
Method: The antitumor activity of a cyanoguanidine compound of this invention can be evaluated by MTS colorimetric assay (see Example 149 below). Results obtained by using cell lines of various types of tumors are compared with those obtained by using cell lines of normal cells in this assay. Viability of the cells in each cell line is estimated by measuring the cellular conversion of a tetrazolium salt after incubating the cells in a solution containing a test cyanoguanidine compound in a 96 well plate. IC50 values obtained by using an identical test compound on normal cells and cells of a particular tumor cell line are compared and their ratio (IC50 normal cell /IC50 cancer cell) indicates the cancer selectivity of that test compound. The higher the ratio, the higher the selectivity of the test compound towards that particular type of cancer cell.
In the secondary screening, IC50 values were determined. Cells were seeded at a low cell density in 96 well flat-bottom plates and incubated for 24 hours at 37° C. in a 7% CO2 atmosphere. […]

[2] = tested on: Non-Hodgkin's B cell lymphoma (RL) tumor; assay: RL human tumor xenograft regression assay; format: in vivo, human tumor in female NIH Swiss nude mice; conditions: for average tumor volume, % of tumor volume obtained in the control: Day 21, 75 mg/kg; for gross toxicity: 2780 75, 2889 90, 2897 75, 2900 60, 2727 60 mg/kg (2727: reduced to once per day); for tumor regression: within the first two weeks of dosing, IV morning + IP afternoon, 2780 75, 2889 90, 2897 75, 2900 60, 2727 60 mg/kg
Method: The antitumor activity of a cyanoguanidine compound of this invention can also be evaluated by in vivo testing, e.g., human tumor xenograft regression assays. Animals bearing established tumors are treated with a test compound for a three-week period. The growth of the tumors and the general health of the animal are monitored during the three-week treatment and for two more weeks after treatment to determine if tumor regrowth occurs. See Example 150 below.
(§1) From the in vitro results obtained, cyanoguanidine compounds were selected for human tumor xenograft regression assays. Animals bearing established tumors (RL) were treated with a test compound for a three-week period. The growth of the tumors and the general health of the animals were monitored during the treatment and for an additional two weeks after dosing had been terminated to determine if tumor regrowth took place.
(§2) Non-Hodgkin's B cell lymphoma (RL) tumor cells, which were adapted to grow as solid tumors, were implanted by an intradermal injection of a tumor cell suspension (30×10^6 cells in 0. 1 mL media) in the flanks of female NIH Swiss nude mice (Taconic Labs). Each mouse was implanted with one tumor and 6-8 mice per group were used.
(§3) Dosing was initiated one week after implantation (Day 1), when tumors reached approximately 50 to 100 mm^3 in volume, with a test compound or vehicle five times per week for three weeks either intravenously (IV) or intraperitoneally (IP). Cyclophosphamide (CTX, Sigma) was used as a standard in the assays. Compounds were first dissolved in DMSO (Sigma) and formulated with 20% Cremophor RH40 (BASF) to a final concentration of 10% DMSO/18% Cremophor. The formulated solution was made fresh daily.
(§4) Tumors, assumed to be hemi-ellipsoid in shape, were measured with calipers in three dimensions. Tumor volumes were calculated using the equation:
(§5) where L=length, W=width, and H=height of the tumor. Animals were weighed and their general health was monitored during the course of the assay. When tumors became necrotic or if animals became moribund, the animals were euthanized by CO2 asphyxiation. Student's t test was used to determine if there was a significant difference between the data obtained in the compound treated group and the vehicle treated group.
In a preliminary RL tumor growth regression assay, eight compounds were administered twice a day (via IV route in the morning and IP route in the afternoon) for five days per week for a three-week period. […] For comparison, cyclophosphamide, reduced the average tumor volume to 2% of control by Day 18. […] Compounds SBR-11-2899 (75 mg/kg), SBR-11-2750 (75 mg/kg), and SBR-11-2749 (75 mg/kg) reduced the average tumor volume to 10%, 14%, and 18% of the tumor volume obtained in the control on Day 21, respectively. One compound, SBR-11-4483 (60 mg/kg) was administered once per day (via IV route) for a two-week period. By day 19, a reduction of the average tumor volume to 1% was observed.

[3] = tested on: Non-Hodgkin's B cell lymphoma (RL) tumor; assay: RL tumor growth regression assay, dose dependence; format: in vivo; conditions: for weight loss: all mice except one CTX-treated mouse; for effect on tumor volume (in words): three doses
Method: as §1, §2, §3, §4, §5
The ability of compounds to act in a dose dependent manner was assayed in an RL tumor growth regression assay using compounds SBR-11-2897 and SBR-11-2780.

[4] = twice a day IV + IP, 5 days/week, 3 weeks, 2780 75, 2889 90, 2897 75, 2900 60 mg/kg
[5] = twice a day IV + IP, 5 days/week, 3 weeks

CC(=O)O[C@H]1C(=O)[C@@]2(C)[C@H]([C@H](OC(=O)c3ccccc3)[C@]3(O)C[C@H](OC(=O)[C@H](O)[C@@H](NC(=O)c4ccccc4)c4ccccc4)C(C)=C1C3(C)C)[C@]1(OC(C)=O)CO[C@@H]1C[C@@H]2O [Taxol]
selectivity of tumor cells (IC50 normal cell /IC50 cancer cell) [1]: 20 fold

N#CN=C(NCc1ccc(NS(=O)(=O)c2cccc(C(F)(F)F)c2)cc1)Nc1ccncc1 [SBR-11-2899, N-(4-(N'-Cyano-N"-pyridin-4-yl-guanidinomethyl)-phenyl)-3-trifluoromethyl-benzenesulfonamide]
average tumor volume, % of tumor volume obtained in the control ([2]; twice a day IV + IP): 10%

N#CN=C(NCc1ccc(NC(=O)c2ccccc2Cc2ccccc2)cc1)Nc1ccncc1 [SBR-11-2750, 2-Benzyl-N-(4-(N'-cyano-N"-pyridin-4-yl-guanidinomethyl)-phenyl)-benzamide]
average tumor volume, % of tumor volume obtained in the control ([2]; twice a day IV + IP): 14%

CN(C)c1cccc2c(S(=O)(=O)Nc3ccc(CNC(=NC#N)Nc4ccncc4)cc3)cccc12 [SBR-11-2897, 5-Dimethylamino-naphthalene-1-sulfonic acid (4-(N'-cyano-N"-pyridin-4-yl-guanidinomethyl)-phenyl)-amide]
weight loss [2, 4]: less than 10%
gross toxicity [2, 5]: little gross toxicity
tumor regression ([2]; 5 days/week): completely regressed all tumors
weight loss [3]: Less than 10%
effect on tumor volume (in words) [3]: almost complete reduction of average tumor volumes

N#CNC(=Nc1ccncc1)NCCN1CCC(OC(c2ccccc2)c2ccccc2)CC1 [SBR-11-4483, N-[2-(4-Benzhydryloxy-piperidin-1-yl)-ethyl]-N'-cyano-N"-pyridin-4-yl-guanidine]
weight loss ([2]; 60 mg/kg once per day IV, two weeks): less than 10%
reduction of the average tumor volume to ([2]; by day 19, 60 mg/kg once per day IV, two weeks): 1%

N#CN=C(NCc1ccc(NS(=O)(=O)c2cccc3ccccc23)cc1)Nc1ccncc1 [SBR-11-2900, Naphthalene-1-sulfonic acid (4-(N'-cyano-N"-pyridin-4-yl-guanidinomethyl)-phenyl)-amide]
weight loss [2, 4]: less than 10%
gross toxicity [2, 5]: little gross toxicity
tumor regression ([2]; 5 days/week): completely regressed all tumors

Cc1cc(C)c(S(=O)(=O)Nc2ccc(CNC(=NC#N)Nc3ccncc3)cc2)c(C)c1 [SBR-11-2889, 2,4,6-Trimethyl-N-(4-(N'-cyano-N"-pyridin-4-yl-guanidinomethyl)-phenyl)-benzenesulfonamide]
weight loss [2, 4]: less than 10%
gross toxicity [2, 5]: little gross toxicity
tumor regression ([2]; 5 days/week): completely regressed all tumors

Cc1c(C)c2c(c(C)c1O)CCC(C)(C(=O)Nc1ccc(CNC(=NC#N)Nc3ccncc3)cc1)O2 (stereo not shown) [SBR-11-2780, 6-Hydroxy-2,5,7,8-tetramethyl-chroman-2-carboxylic acid (4-(N'-cyano-N"-pyridin-4-yl-guanidinomethyl)-phenyl)-amide]
weight loss [2, 4]: less than 10%
gross toxicity [2, 5]: little gross toxicity
tumor regression ([2]; 5 days/week): completely regressed all tumors
average tumor volume, % of control group ([3]; 20 mg/kg): 86%
average tumor volume, % of control group ([3]; 40 mg/kg): 24%
average tumor volume, % of control group ([3]; 80 mg/kg): 3%
weight loss [3]: Less than 10%
effect on tumor volume (in words) [3]: dose dependent effect

COc1ccc2cc(C(C)C(=O)Nc3ccc(CNC(=NC#N)Nc4ccncc4)cc3)ccc2c1 (stereo not shown) [SBR-11-2749, 2-(6-Methoxy-naphthalen-2-yl)-N-(4-(N'-cyano-N"-pyridin-4-yl-guanidinomethyl)-phenyl)-propionamide]
average tumor volume, % of tumor volume obtained in the control ([2]; twice a day IV + IP): 18%

O=P1(N(CCCl)CCCl)NCCCO1 (stereo not shown) [cyclophosphamide, Cyclophosphamide, reference compound]
average tumor volume, % of control ([2]; by Day 18, cyclophosphamide standard): 2%

N#CN=C(NCc1ccc(NC(=O)C2c3ccccc3-c3ccccc32)cc1)Nc1ccncc1 [SBR-11-2727, 9H-fluorene-9-carboxylic acid (4-(N'-cyano-N"-pyridin-4-yl-guanidinomethyl)-phenyl)-amide]
gross toxicity [2, 5]: signs of gross toxicity within the first week
tumor regression ([2]; 5 days/week): completely regressed all tumors
